Source: patent US7981867B2, “Use of des-aspartate-angiotensin I” (priority 2005, dated 2011)
Values joined by “and” are separate entries in the source; they are usually repeats but may differ in a detail not shown here. Identical values can stand only once. Like-named read-outs stand apart in the source and are kept apart here.

What was measured:
[1] = tested on: Influenza A/Aichi/2/68 virus; format: in vivo, BALB/c mice; conditions: for Percentage Weight Change of Individual Mouse: i.p. 60 nmole/kg for 7 days from weight loss 15% or greater, mice 1-7 = c8-c14
[2] = tested on: diabetic KKAy mice; assay: Oral glucose tolerance test in diabetic KKAy mice, intraperitoneal treatment; format: in vivo; set-up: Serum glucose level: unit not given here; conditions: for Serum glucose level: oral glucose tolerance test
Description: (§1) The diabteic KKAy mice were divided into four groups consisting of 6 animals per group. Animals in the control group were intraperitoneally administered 0.1 mL saline. Animals in the second, third, and fourth groups were similarly administered with 100, 200, 400 nmole/kg des-aspartate-angiotensin I, respectively. Treatment with saline and des-aspartate-angiotensin I was carried out daily for 4 weeks. Following this, animals were fasted overnight for 16 hours and oral glucose tolerance test was performed as follows: blood was withdrawn from the orbital sinus for blood glucose determination (time of withdrawal was designated as 0 time), animals were then orally administered glucose (2 g/kg), and blood was withdrawn at 30, 60 and 120 min for blood glucose determination.
as §1, with “diabetic” for “diabteic”, “respectively in 0.1 ml of PBS.” for “respectively.”, “determination. The blood was allowed to clot and blood glucose was measured as serum glucose using a commercial glucose kit from Thermo Electron Corporation, Australia.” for “determination.”

[3] = tested on: diabetic KKAy mice; assay: Oral glucose tolerance test in diabetic KKAy mice, oral treatment; format: in vivo; set-up: Serum glucose level: unit not given here; conditions: for Serum glucose level: oral glucose tolerance test
Description: (§2) A dose-range finder experiment to determine the hypoglycaemic dose for orally administered des-aspartate-angiotensin I was also carried out. In this experiment, the animals in each of the three treatment groups of 7 diabetic KKAy mice were orally administered (by gavage) 200, 400, and 600 nmole/kg/day des-aspartate-angiotensin I in volume of 0.1 mL, respectively. Animals in the control group were similarly administered 0.1 mL water. The treatment period was 4 weeks. Oral glucose tolerance test was carried out as described in Example 5, except that blood was sampled at 0 and 30 min.
as §2, with “In” for “A dose-range finder experiment to determine the hypoglycaemic dose for orally administered des-aspartate-angiotensin I was also carried out. In”, “mL water,” for “mL,”, “EXAMPLE 7,” for “Example 5,”

[4] = tested on: diabetic GK rats; assay: Oral glucose tolerance test in diabetic GK rats, oral treatment; format: in vivo; conditions: 400 or 600 nmole/kg oral daily; for hypoglycaemic action (30 min oral glucose tolerance test): 6 weeks of treatment
Description: The experiment was similarly carried as for KKAy mice. Control animals were administered (by gavage) 0.2 mL of water and groups 1 and 2 animals were similarly administered 400 and 600 nmole/kg des-aspartate-angiotensin I in 0.2 mL water, respectively, for a period 8 weeks. Oral glucose tolerance test (determined at 30 min) was carried out after 4 and 6 weeks of treatment. […] Data obtained after 8 week of treatment are given in another figure, FIG. 4.
Diabetic GK rats were divided into three groups, consisting of six animals in each group. Animals in groups 1 and 2 were administered, by gavage, one of the following: 400 or 600 nmole/kg of des-aspartate-angiotensin I in a volume of 0.2 mL water daily for up to 8 weeks. Control animals in group 3 were similarly administered 0.2 mL water. […] Animals were treated for a further 2 weeks and a full oral glucose tolerance test was performed thereafter.

[5] = tested on: serum insulin; assay: Serum insulin level of diabetic GK rats (ELISA); format: in vivo; conditions: 600 nmole/kg oral, 8 weeks, serum at 30 min of the oral glucose tolerance test, vs control
Description: Serum from 8 weeks treated animals (as described in EXAMPLE 9) were assayed for insulin concentration by the “Ultra Senstive Rat Insulin ELISA kit” (Crystal Chem. Inc., IL, USA). The values were from serum taken at 30 min of the oral glucose tolerance test.
The diabetic GK rats described in EXAMPLE 9 were similarly treated for another week. At 9 weeks of treatment, animals were fasted overnight and half the animals in each group were intraperitoneally administered with PBS and the other half with insulin (0.5 U/kg). After 30 minutes, the animals were sacrificed by cervical dislocation. Hind limb skeletal muscles were rapidly excised and frozen in liquid nitrogen. Muscle samples were stored at −80° C. until used. The hindlimb muscles were subsequently thawed over an ice pack and plasma membranes were prepared as described by Dombrowaski et al. Thirty μg of protein from the 25% interface of the discontinued sucrose gradient was subjected to SDS-PAGE, transferred to PVDF sheets and incubated with anti-GLUT4 polyclonal primary antibody (1:800), washed and followed by incubation with anti-goat secondary antibody (1:10,000). The bands were detected at 49 kDa. […] As insulin resistance is the hallmark of diabetes, it is concluded that the des-aspartate-angiotensin I exerts marked hypoglycaemic action in diabetic GK rats by overcoming insulin resistance in these animals.

des-aspartate-angiotensin I (RVYIHPFHL; Angiotensin-1; UniProt P01019 26-34, looked up, fragment) [endogenous angiotensin peptide derived from angiotensin I by a specific aminopeptidase; purchased from Bachem]
Percentage Weight Change of Individual Mouse ([1]; post infection day 2): 96.3% and 97.1% and 96.6% and 97.3% and 95.8% and 99.3% and 99.8% | Percentage Weight Change of Individual Mouse ([1]; post infection day 3): 90.3% and 94.6% and 88.6% and 94.7% and 93.9% and 99.4% and 99.0% | Percentage Weight Change of Individual Mouse ([1]; post infection day 4): 85.7% and 86.2% and 83.3% and 92.1% and 90.8% and 97.5% and 96.6% | Percentage Weight Change of Individual Mouse ([1]; post infection day 5): 82.8% and 85.7% and 81.0% and 90.1% and 89.0% and 90.3% and 91.7% | Percentage Weight Change of Individual Mouse ([1]; post infection day 6): 80.8% and 82.7% and 78.2% and 85.2% and 88.8% and 87.5% and 87.4% | Percentage Weight Change of Individual Mouse ([1]; post infection day 7): 80.7% and 76.8% and 73.9% and 82.8% and 84.4% and 85.0% and 83.8% | Percentage Weight Change of Individual Mouse ([1]; post infection day 8): 79.7% and 72.9% and 71.2% and 83.2% and 82.4% and 86.2% and 80.4% | Percentage Weight Change of Individual Mouse ([1]; post infection day 9): 81.4% and 69.9% and 71.8% and 80.5% and 78.6% and 90.3% and 78.8% | Percentage Weight Change of Individual Mouse ([1]; post infection day 10): 80.5% and 69.0% and 73.2% and 82.3% and 77.7% and 93.0% and 77.5% | Percentage Weight Change of Individual Mouse ([1]; post infection day 11): 82.1% and 67.7% and 75.8% and 88.9% and 74.5% and 99.3% and 77.1% | Percentage Weight Change of Individual Mouse ([1]; post infection day 12): 80.0% and 64.9% and 80.1% and 88.9% and 74.5% and 101.2% and 78.9% | Percentage Weight Change of Individual Mouse ([1]; post infection day 13): 76.6% and 63.0% and 82.8% and 97.4% and 72.3% and 80.8% | Percentage Weight Change of Individual Mouse ([1]; post infection day 14): 75.2% and 61.3% and 86.3% and 102.8% and 74.0% and 82.6% | Percentage Weight Change of Individual Mouse ([1]; post infection day 15): 83.0% and 58.9% and 90.1% and 76.7% and 84.3% | Percentage Weight Change of Individual Mouse ([1]; post infection day 16): 90.3% and 58.9% and 94.6% and 78.6% and 89.4% | Percentage Weight Change of Individual Mouse ([1]; post infection day 17): 93.5% | animals survived and regained their original weight ([1]; i.p. 60 nmole/kg for 7 days, 7 treated animals): Six | influenza A virus in the lung homogenate of the surviving mice ([1]; i.p. 60 nmole/kg for 7 days, assayed in MDCK cells): No influenza A virus was detected | Fate of individual mouse (death) ([1]; i.p. 60 nmole/kg for 7 days, treated mouse 4, post infection day 18): died | Serum glucose level ([2]; 100 nmole/kg i.p. daily for 4 weeks, 0 min): 7.9 ± 0.9 | Serum glucose level ([2]; 100 nmole/kg i.p. daily for 4 weeks, 30 min): 21.2 ± 1.6 | Serum glucose level ([2]; 100 nmole/kg i.p. daily for 4 weeks, 60 min): 13.4 ± 1.3 | Serum glucose level ([2]; 100 nmole/kg i.p. daily for 4 weeks, 120 min): 9.9 ± 0.5 | Serum glucose level ([2]; 200 nmole/kg i.p. daily for 4 weeks, 0 min): 6.9 ± 0.9 | Serum glucose level ([2]; 200 nmole/kg i.p. daily for 4 weeks, 30 min): 16.0 ± 1.4 | Serum glucose level ([2]; 200 nmole/kg i.p. daily for 4 weeks, 60 min): 14.5 ± 0.9 | Serum glucose level ([2]; 200 nmole/kg i.p. daily for 4 weeks, 120 min): 8.7 ± 1.2 | Serum glucose level ([2]; 400 nmole/kg i.p. daily for 4 weeks, 0 min): 6.5 ± 0.6 | Serum glucose level ([2]; 400 nmole/kg i.p. daily for 4 weeks, 30 min): 15.4 ± 1.6 | Serum glucose level ([2]; 400 nmole/kg i.p. daily for 4 weeks, 60 min): 13.0 ± 1.1 | Serum glucose level ([2]; 400 nmole/kg i.p. daily for 4 weeks, 120 min): 8.8 ± 0.6 | blood glucose level at 30 and 60 min of the oral glucose tolerance test ([2]; doses of 200 and 400 nmole/kg/day i.p. for 4 weeks, vs control): significantly lowered | Serum glucose level ([3]; 200 nmole/kg/day oral (gavage) for 4 weeks, 0 min): 8.9 ± 1.0 | Serum glucose level ([3]; 200 nmole/kg/day oral (gavage) for 4 weeks, 30 min): 37.7 ± 2.6 | Serum glucose level ([3]; 400 nmole/kg/day oral (gavage) for 4 weeks, 0 min): 9.1 ± 1.6 | Serum glucose level ([3]; 400 nmole/kg/day oral (gavage) for 4 weeks, 30 min): 26.0 ± 3.6 | Serum glucose level ([3]; 600 nmole/kg/day oral (gavage) for 4 weeks, 0 min): 8.9 ± 0.7 | Serum glucose level ([3]; 600 nmole/kg/day oral (gavage) for 4 weeks, 30 min): 17.5 ± 1.9 | hypoglycaemic action ([3]; oral dose of 600 nmole/kg/day for 4 weeks, KKAy mice): significant hypoglycaemic action | hypoglycaemic action (30 min oral glucose tolerance test) [4]: significant hypoglycaemic action was detected | hypoglycaemic action (30 min oral glucose tolerance test) ([4]; listed as DAA-1): exerts hypoglycaemic action | hypoglycaemic action (full oral glucose tolerance test) ([4]; 8 weeks of treatment): significantly expressed | serum level of insulin [5]: not significantly affected | serum level of insulin ([5]; listed as des-aspartate-angiotesnin I): no significant difference
